# Measurements: patent US20110136762A1, “FUNGICIDAL PYRIDAZINES” (E.I. Du Pont de Nemours and Company, priority 2008, published 2011)
# Experiments:
# Type in all cases: in vivo
# Alternaria solani = experiment: Test E: tomato early blight, preventive spray on tomato seedlings, visual disease rating; settings: 200 ppm, 100 = 100% disease control, 0 = no disease control relative to controls; for pest or weed control at 200 ppm: Alternaria solani
# Source text: General protocol for preparing test suspensions for Tests A-F: […] The resulting test suspensions were then used in Tests A-F. The test suspensions were sprayed to the point of run-off on the test plants. All results are for 200 ppm (equivalent to a rate of 500 g/ha) except where followed by “*” which indicates 40 ppm. The test suspension was sprayed to the point of run-off on tomato seedlings. […] A dash (-) indicates no test results. All results are for 200 ppm except where followed by “*”, which indicates 40 ppm.
# Erysiphe graminis = experiment: Test A: wheat powdery mildew, preventive spray on wheat seedlings, visual disease rating; settings: 200 ppm, 100 = 100% disease control, 0 = no disease control relative to controls; for pest or weed control at 200 ppm: Blumeria graminis, 192 h
# Source text: General protocol for preparing test suspensions for Tests A-F: […] The resulting test suspensions were then used in Tests A-F. The test suspensions were sprayed to the point of run-off on the test plants. All results are for 200 ppm (equivalent to a rate of 500 g/ha) except where followed by “*” which indicates 40 ppm. The test suspension was sprayed to the point of run-off on wheat seedlings. The following day the seedlings were inoculated with a spore dust of Erysiphe graminis, (the causal agent of wheat powdery mildew) and incubated in a growth chamber at 20° C. for 8 days, after which time visual disease ratings were made. […] A dash (-) indicates no test results. All results are for 200 ppm except where followed by “*”, which indicates 40 ppm.
# [1] = system: Puccinia recondita f. sp. tritici; experiment: Test B: wheat leaf rust, preventive spray on wheat seedlings, visual disease rating; settings: 200 ppm, 100 = 100% disease control, 0 = no disease control relative to controls; for pest or weed control at 200 ppm: 192 h
# Source text: General protocol for preparing test suspensions for Tests A-F: […] The resulting test suspensions were then used in Tests A-F. The test suspensions were sprayed to the point of run-off on the test plants. All results are for 200 ppm (equivalent to a rate of 500 g/ha) except where followed by “*” which indicates 40 ppm. The test suspension was sprayed to the point of run-off on wheat seedlings. The following day the seedlings were inoculated with a spore suspension of Puccinia recondita f. sp. tritici (the causal agent of wheat leaf rust) and incubated in a saturated atmosphere at 20° C. for 24 h, and then moved to a growth chamber at 20° C. for 7 days, after which time visual disease ratings were made. […] A dash (-) indicates no test results. All results are for 200 ppm except where followed by “*”, which indicates 40 ppm.
# Septoria nodorum = experiment: Test D: wheat glume blotch, preventive spray on wheat seedlings, visual disease rating; settings: 200 ppm, 100 = 100% disease control, 0 = no disease control relative to controls; for pest or weed control at 200 ppm: Parastagonospora nodorum
# Source text: General protocol for preparing test suspensions for Tests A-F: […] The resulting test suspensions were then used in Tests A-F. The test suspensions were sprayed to the point of run-off on the test plants. All results are for 200 ppm (equivalent to a rate of 500 g/ha) except where followed by “*” which indicates 40 ppm. The test suspension was sprayed to the point of run-off on wheat seedlings. The following day the seedlings were inoculated with a spore suspension of Septoria nodorum (the causal agent of wheat glume blotch) and incubated in a saturated atmosphere at 20° C. for 48 h, and then moved to a growth chamber at 20° C. for 7 days, after which time visual disease ratings were made. […] A dash (-) indicates no test results. All results are for 200 ppm except where followed by “*”, which indicates 40 ppm.
# Septoria tritici = experiment: Test C: wheat leaf blotch, preventive spray on wheat seedlings, visual disease rating; settings: 200 ppm, 100 = 100% disease control, 0 = no disease control relative to controls; for pest or weed control at 200 ppm: Zymoseptoria tritici, 504 h
# Source text: General protocol for preparing test suspensions for Tests A-F: […] The resulting test suspensions were then used in Tests A-F. The test suspensions were sprayed to the point of run-off on the test plants. All results are for 200 ppm (equivalent to a rate of 500 g/ha) except where followed by “*” which indicates 40 ppm. The test suspension was sprayed to the point of run-off on wheat seedlings. The following day the seedlings were inoculated with a spore suspension of Septoria tritici (the causal agent of wheat leaf blotch) and incubated in saturated atmosphere at 20° C. for 48 h, and moved to a growth chamber at 20° C. for 19 additional days, after which time visual disease ratings were made. […] A dash (-) indicates no test results. All results are for 200 ppm except where followed by “*”, which indicates 40 ppm.
# Botrytis cinerea = experiment: Test F: tomato Botrytis, preventive spray on tomato seedlings, visual disease rating; settings: 200 ppm, 100 = 100% disease control, 0 = no disease control relative to controls; for pest or weed control at 200 ppm: Botrytis cinerea
# Source text: General protocol for preparing test suspensions for Tests A-F: […] The resulting test suspensions were then used in Tests A-F. The test suspensions were sprayed to the point of run-off on the test plants. All results are for 200 ppm (equivalent to a rate of 500 g/ha) except where followed by “*” which indicates 40 ppm. The test suspension was sprayed to the point of run-off on tomato seedlings. The following day the seedlings were inoculated with a spore suspension of Botrytis cinerea (the causal agent of tomato Botrytis) and incubated in saturated atmosphere at 20° C. for 48 h, and then moved to a growth chamber at 24° C. for 3 days, after which time visual disease ratings were made. […] A dash (-) indicates no test results. All results are for 200 ppm except where followed by “*”, which indicates 40 ppm.
smiles,measurement,setting,value
"COc1cc(OC)cc(-c2c(-c3ccccc3)nnc(C)c2-c2ccc(F)cc2)c1 [Compound 1, 4-(3,5-dimethoxyphenyl)-5-(4-fluorophenyl)-6-methyl-3-phenylpyridazine]",pest or weed control at 200 ppm,Alternaria solani,72%
same,pest or weed control at 200 ppm,Erysiphe graminis,85%
same,pest or weed control at 200 ppm,[1],99%
same,pest or weed control at 200 ppm,Septoria nodorum,0%
same,pest or weed control at 200 ppm,Septoria tritici,100%
same,pest or weed control at 200 ppm,Botrytis cinerea,98%
"COc1cc(OC)cc(-c2c(-c3ccccc3F)nnc(C)c2-c2ccc(F)cc2)c1 [Compound 2, 4-(3,5-dimethoxyphenyl)-3-(2-fluorophenyl)-5-(4-fluorophenyl)-6-methylpyridazine]",pest or weed control at 200 ppm,Alternaria solani,99%
same,pest or weed control at 200 ppm,Erysiphe graminis,97%
same,pest or weed control at 200 ppm,[1],99%
same,pest or weed control at 200 ppm,Septoria nodorum,0%
same,pest or weed control at 200 ppm,Septoria tritici,100%
same,pest or weed control at 200 ppm,Botrytis cinerea,99%
COc1cc(OC)cc(-c2c(-c3ccccc3)nnc(C)c2-c2ccccc2)c1 [Compound 3],"Test E rating (disease control, tomato early blight)",Alternaria solani,0%
same,"Test A rating (disease control, wheat powdery mildew)",Erysiphe graminis,52%
same,"Test B rating (disease control, wheat leaf rust)",[1],86%
same,"Test D rating (disease control, wheat glume blotch)",Septoria nodorum,0%
same,"Test C rating (disease control, wheat leaf blotch)",Septoria tritici,87%
same,"Test F rating (disease control, tomato Botrytis)",Botrytis cinerea,52%
COc1cc(OC)cc(-c2c(-c3ccccc3F)nnc(C)c2-c2ccccc2)c1 [Compound 4],"Test E rating (disease control, tomato early blight)",Alternaria solani,28%
same,"Test A rating (disease control, wheat powdery mildew)",Erysiphe graminis,82%
same,"Test B rating (disease control, wheat leaf rust)",[1],96%
same,"Test D rating (disease control, wheat glume blotch)",Septoria nodorum,0%
same,"Test C rating (disease control, wheat leaf blotch)",Septoria tritici,84%
same,"Test F rating (disease control, tomato Botrytis)",Botrytis cinerea,94%
COc1cc(OC)cc(-c2c(-c3ccc(F)cc3F)nnc(C)c2-c2ccccc2)c1 [Compound 5],"Test E rating (disease control, tomato early blight)",Alternaria solani,0%
same,"Test A rating (disease control, wheat powdery mildew)",Erysiphe graminis,91%
same,"Test B rating (disease control, wheat leaf rust)",[1],86%
same,"Test D rating (disease control, wheat glume blotch)",Septoria nodorum,0%
same,"Test C rating (disease control, wheat leaf blotch)",Septoria tritici,94%
same,"Test F rating (disease control, tomato Botrytis)",Botrytis cinerea,82%
COc1cc(OC)cc(-c2c(-c3ccccc3)nnc(C)c2-c2ccc(Cl)cc2)c1 [Compound 6],"Test E rating (disease control, tomato early blight)",Alternaria solani,36%
same,"Test A rating (disease control, wheat powdery mildew)",Erysiphe graminis,79%
same,"Test B rating (disease control, wheat leaf rust)",[1],97%
same,"Test D rating (disease control, wheat glume blotch)",Septoria nodorum,0%
same,"Test C rating (disease control, wheat leaf blotch)",Septoria tritici,97%
same,"Test F rating (disease control, tomato Botrytis)",Botrytis cinerea,67%
"COc1ccc(-c2c(C)nnc(-c3ccccc3)c2-c2cc(OC)cc(OC)c2)cc1 [Compound 7, 4-(3,5-dimethoxyphenyl)-5-(4-methoxyphenyl)-6-methyl-3-phenylpyridazine]",pest or weed control at 200 ppm,Alternaria solani,96%
same,pest or weed control at 200 ppm,Erysiphe graminis,95%
same,pest or weed control at 200 ppm,[1],100%
same,pest or weed control at 200 ppm,Septoria nodorum,90%
same,pest or weed control at 200 ppm,Septoria tritici,100%
same,pest or weed control at 200 ppm,Botrytis cinerea,97%
"COc1ccc(-c2c(C)nnc(-c3ccccc3F)c2-c2cc(OC)cc(OC)c2)cc1 [Compound 8, 4-(3,5-dimethoxyphenyl)-3-(2-fluorophenyl)-5-(4-methoxyphenyl)-6-methylpyridazine]",pest or weed control at 200 ppm,Alternaria solani,99%
same,pest or weed control at 200 ppm,Erysiphe graminis,97%
same,pest or weed control at 200 ppm,[1],100%
same,pest or weed control at 200 ppm,Septoria nodorum,95%
same,pest or weed control at 200 ppm,Septoria tritici,100%
same,pest or weed control at 200 ppm,Botrytis cinerea,98%
"COc1ccc(-c2c(C)nnc(-c3ccc(F)cc3F)c2-c2cc(OC)cc(OC)c2)cc1 [Compound 9, 3-(2,4-difluorophenyl)-4-(3,5-dimethoxyphenyl)-5-(4-methoxyphenyl)-6-methylpyridazine]",pest or weed control at 200 ppm,Alternaria solani,81%
same,pest or weed control at 200 ppm,Erysiphe graminis,84%
same,pest or weed control at 200 ppm,[1],91%
same,pest or weed control at 200 ppm,Septoria nodorum,60%
same,pest or weed control at 200 ppm,Septoria tritici,100%
same,pest or weed control at 200 ppm,Botrytis cinerea,98%
COc1cc(OC)cc(-c2c(-c3cccc(F)c3F)nnc(C)c2-c2ccccc2)c1 [Compound 10],"Test E rating (disease control, tomato early blight)",Alternaria solani,88%
same,"Test A rating (disease control, wheat powdery mildew)",Erysiphe graminis,97%
same,"Test B rating (disease control, wheat leaf rust)",[1],99%
same,"Test D rating (disease control, wheat glume blotch)",Septoria nodorum,0%
same,"Test C rating (disease control, wheat leaf blotch)",Septoria tritici,99%
same,"Test F rating (disease control, tomato Botrytis)",Botrytis cinerea,95%
